Experiments:
Type in all cases: cell-based
[1] = test system: U87 glioblastoma cells; experiment: MTT in vitro cytotoxicity assay, U87; settings: 72 h drug exposure, n = 3, read-out: GI50 ± SEM, U87
Outline: (§1)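 Cells seeded at 2500–4000 per well, treated 24 h later in log phase, and exposed to compound for 72 h at 37 °C, 5% CO2 in DMEM with 10% FBS. MTT read at 540 nm; GI50 from an eight-point curve relative to day-0 optical density, mean ± SEM of three experiments.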

[2] = test system: H460 lung cancer cells; experiment: MTT in vitro cytotoxicity assay, H460; settings: 72 h drug exposure, n = 3, read-out: GI50 ± SEM, H460
Outline: as §1

[3] = test system: MCF10A (healthy breast) cells; experiment: Cellular platinum uptake by ICP-MS, MCF10A; settings: 1.0 and 0.1 µM, 4 h, among complexes 1–4
Protocol: (§2) Cellular uptake studies were carried out in MCF-7 (breast cancer) and MCF10A (healthy breast) cell lines. Reported in Table S2 are the numbers of cells per well that were seeded onto 12-well plates for each replicate and cell line. After incubating overnight at 37 °C, the cell culture medium was replaced with fresh media containing the test compounds at concentrations of 1.0 and 0.1 µM. After incubating for 4 h, the medium was removed, the cells were washed with PBS twice, and then incubated with trypsin solution until the cells dissociated from the plate. The harvested cells were then placed into an Eppendorf tube and PBS was added to a volume of 1 mL. Cell numbers were determined using trypan blue staining. Cell pellets were obtained after centrifugation and the cells were dispersed in 50 µL of MilliQ™ water and stored immediately at −20 °C until platinum analysis was conducted. These experiments were repeated in triplicate on three separate occasions.
Sixty-nine percent HNO3 (50 µL) was added to each sample and digested at 80 °C for 1.5 h, before being taken up to 1 mL with H2O. The platinum analysis was conducted using a PerkinElmer (Melbourne, Australia) NexION™ 300X inductively coupled plasma mass spectrometer (ICP-MS). […] The calibration was linear over the working range (R^2 > 0.9999) and the most abundant platinum isotope (m/z = 195) was monitored. […]

[4] = test system: MCF-7 (breast cancer) cells; experiment: Cellular platinum uptake by ICP-MS, MCF-7; settings: 0.1 µM, 4 h, ICP-MS
Protocol: as §2
Sixty-nine percent HNO3 (50 µL) was added to each sample and digested at 80 °C for 1.5 h, before being taken up to 1 mL with H2O. The platinum analysis was conducted using a PerkinElmer (Melbourne, Australia) NexION™ 300X inductively coupled plasma mass spectrometer (ICP-MS). A four-point calibration curve was produced by serial dilution of a certified platinum reference standard. The calibration was linear over the working range (R^2 > 0.9999) and the most abundant platinum isotope (m/z = 195) was monitored. The average values for three independent experiments were reported with standard deviations.

[5] = test system: SJ-G2 glioblastoma cells; experiment: MTT in vitro cytotoxicity assay, SJ-G2; settings: 72 h drug exposure, n = 3, read-out: GI50 ± SEM, SJ-G2
Outline: as §1

[6] = test system: HT29 colon cancer cells; experiment: MTT in vitro cytotoxicity assay, HT29
Outline: as §1

COc1cc[n+]2c3c1ccc1c(OC)cc[n+](c13)[Pt-2]21([OH])([O]C(=O)CCCC[C@@H]2SC[C@@H]3NC(=O)N[C@@H]32)[NH2+][C@H]2CCCC[C@@H]2[NH2+]1.O=[N+]([O-])[O-].O=[N+]([O-])[O-] [Complex 3, [Pt(4,7-dimethoxy-1,10-phenanthroline)(1S,2S-diaminocyclohexane)(biotin)(hydroxido)](NO3)2]
GI50 [1]: 0.32 ± 0.06 µM | GI50 [2]: 0.27 ± 0.03 µM | cellular platinum uptake in MCF10A (rank) [3]: lowest uptake levels | cellular platinum uptake in MCF-7 [4]: greatest uptake | fold greater uptake in MCF-7 compared to MCF10A [4]: ~3 fold | GI50 [5]: 0.57 ± 0.17 µM | GI50 ([6]; MTT, 72 h drug exposure, n = 3, read-out: GI50 ± SEM, HT29): 0.13 ± 0.05 µM | number-fold potency against cisplatin, HT29 colon ([6]; ratio of GI50 values, 72 h): 87 fold

— PMC9853328, “Potent Platinum(IV) Prodrugs That Incorporate a Biotin Moiety to Selectively Target Cancer Cells” (Pharmaceutics, 2022)
